Laboratory results taken from article PMC11953309 (Nature Communications, 2025).

System: IBD mouse fecal-derived ex vivo microbial community
Assay: Ex vivo screening on IBD mouse fecal-derived microbial community
Type: cell-based, IL-10-deficient C57BL/6N mouse

CN[C@H](CC(C)C)C(=O)N[C@H]1C(=O)N[C@@H](CC(N)=O)C(=O)N[C@H]2C(=O)N[C@H]3C(=O)N[C@H](C(=O)N[C@H](C(=O)O)c4cc(O)cc(O)c4-c4cc3ccc4O)[C@H](O)c3ccc(c(Cl)c3)Oc3cc2cc(c3O[C@@H]2O[C@H](CO)[C@@H](O)[C@H](O)[C@H]2O[C@H]2C[C@](C)(N)[C@H](O)[C@H](C)O2)Oc2ccc(cc2Cl)[C@H]1O [vancomycin]
Number of differentially abundant species (10 μg/mL, 48 h anaerobic, mGAM, MaAsLin2 vs blank, FDR-adjusted p < 0.05, n = 3): 73 | beta diversity (PCoA, Bray-Curtis) clustering vs blank (AIPs 10 μg/mL, vancomycin 1 μg/mL and 10 μg/mL, 48 h): notable differences
